Assay results taken from US20240390434A1, “PROBIOTIC ENHANCERS AND USES THEREOF” (Blis Technologies Limited, priority 2021, published 2024).

Key:
salA = test: qPCR relative gene expression in K12 grown on CABCa agar; type: cell-based, S. salivarius K12
Description: (§1) Method: CABCa agar plates were prepared either with or without 2.5% w/w raffinose, 0.5% w/w galactose, combined 2.5% w/w raffinose and 0.5% w/w galactose, 0.5% w/w glucose or 2.5% w/w glucose by the addition of 0.5% (w/v) calcium carbonate to solid CAB agar in bottles and then melted by autoclaving at 110° C. for 10 mins. Once cooled, filter sterilised solutions of the saccharides or distilled water were added and mixed and then 20 ml pipetted into petri dishes.
(§2) A S. salivarius K12 raw ingredient suspension was prepared in PBS containing approx. 1×10^8cfu/ml. […] of this suspension was spread evenly onto control and test agar plates. Plates were incubated at 37° C. with 5% CO2 for approx, 19 hrs.
(§3) Bacterial growth from each plate was collected using a sterile cotton swab and resuspended into 1 ml PBS in a screw capped tube. The bacterial cells were then pelleted by centrifugation at 13,000 rpm for 1 minute at 4° C. The supernatant was removed, and the cell pellet was resuspended in 1 ml of TRIzol reagent. The bacterial cell suspension was transferred into a 2 ml screw-capped tube containing 0.1 mm Zirconia/silicon beads. These tubes were then vortexed for 5 minutes at the highest speed to bead beat the bacterial cells to lyse them. The tubes were placed on ice for 1 minute and then re-bead beated again on the vortex for 5 minutes. The tubes were then frozen at −20° C.
(§4) The cDNA samples from K12 raw ingredient grown on the CABCa control plates and CABCa supplemented with the various saccharides were then analysed by qPCR for the levels of gene expression of the following genes: salA, salB, salQ and ureC.
(§5) 10 μl qPCR reactions were prepared containing 2 μl of cDNA, 5 μl SYBR green master mix, 0.5 μl forward primer, 0.5 μl reverse primer and nuclease free water up to 10 μl. The dilution of cDNA in each qPCR was optimised with each primer set.
(§6) qPCR method consisted of the following cycles: Hold Stage: 2 mins at 50° C. followed by 10 mins at 95° C.; PCR Stage: 15 secs at 95° C. followed by 1 min at 60° C.; Melt Curve Stage: 15 secs at 95° C. followed by 1 min at 60° C. followed by 15 secs at 95° C.
(§7) To analyse the relative expression levels the 2^−ΔΔCt method was used to determine the relative fold gene expression level comparing the different sugars to a CABCa plate control. The reference gene used for this analysis was gyrA.

ureC = test: as above; type: cell-based, S. salivarius K12
Description: as §1, §2, §3, §4, §5, §6, §7

[1] = system: pathogens implicated in the ENT and Skin infections; test: Deferred antagonism assay with other S. salivarius producer strains; type: cell-based
Description: Method: Preparation of solid culture media—CABCa agar plates were prepared with or without either 2.5% w/w raffinose or 0.5% w/w galactose by the addition of 0.5% (w/v) calcium carbonate to solid CAB agar in bottles and then melted by autoclaving at 110° C. for 10 mins. Once cooled, filter sterilised solutions of the saccharides or distilled water were added and mixed and then 20 ml pipetted into petri dishes.
Preparing S. salivarius producer suspension, about 6 colonies of each S. salivarius strain were added into separate tubes containing 1 ml THB and mixed well.
Deferred antagonism assay—100 μl of S. salivarius producer suspensions was dispensed onto CABCa plates supplemented with or without raffinose or galactose as droplets in a vertical line down the middle of the test plate. This suspension was then spread as 1.2 cm streak down the middle of the plate using a cutdown plastic spreader. Plates were incubated for 18 hours at 37° C., 5% CO2 in air.
After incubation, the bacterial growth was then removed from the agar plate using a sterile cotton swab. The pH of the producer streak was then adjusted by placing a 1 cm wide strip of filter paper soaked in 0.5M sodium carbonate pH 11 onto the agar plate to buffer the acid and adjust the pH up to around pH 6.5-7.5.
Plates were surface sterilised with chloroform vapour for 30 minutes, followed by air drying for 30 minutes.
Bacterial indicator suspensions were prepared by adding 3-9 colonies (depending on the size) of each strain into separate tubes containing 3 ml THB. These suspensions were then swabbed across the agar plate perpendicular to the producer streak and then the agar plate was incubated for a further 18 hours at 37° C., 5% CO2 in air.

[2] = system: bacterial indicator strains; test: Split plate inhibitory activity of K12 in infant formula or whole milk powder (overall); type: cell-based; conditions: galactose 0.5% w/w or raffinose 2.5% w/w added
Description: The following method was used to measure the inhibitory effect of S. salivarius K12 in the context of the powder formulations. Exactly 40 mL of 50° C. molten CAB agar containing 0.5% calcium carbonate (CABCa) was poured in agar plates (120×120 mm). Once the agar was set upon cooling, it was split in the middle and half of the agar gel was removed. The other half was left on the plate as Blank agar marked as side “A”. Approximately, 0.8 g of each combination (DDJ powder with (1) galactose, (2) raffinose or (3) combination of raffinose and galactose) was mixed with 1 mL of sterile distilled water and vortexed to produce a homogeneous suspension. 100 μl of the suspension was reserved for spreading on the surface of agar (producer side B). The remaining suspension was then mixed with 20 mL of molten CABCa agar and the mixture was poured into the empty half of the agar plate to form producer side “B”. The 100 μL of the reserved suspension was spread over the surface on side B and the plates were incubated for 18 h, 37° C., 5% CO2 in air. […] The pH of the producer side was measured and adjusted to 6.5-7.5 by soaking into the agar a solution of 0.5 M sodium carbonate pH 11. […] The zone of inhibition of each indicator strain was measured (in mm) using a ruler. Results were also read using a macroscope to establish presence of small colonies or complete inhibition zones. […]

SMILES	increase in gene expression of salA relative to no sugar control (salA; 0.5% w/w sugar in CABCa agar)	upregulation in urease (ureC) expression (ureC; 0.5% w/w sugar in CABCa agar)	induction of inhibitory effect in other S. salivarius strains ([1]; 0.5% w/w galactose, compared with K12 and M18)	inhibitory activity of K12 in infant formula compared to the control [2]	increase in gene expression of salA relative to no sugar control (salA; 2.5% w/w sugar in CABCa agar)	upregulation in urease (ureC) expression (ureC; 2.5% w/w sugar in CABCa agar)	induction of inhibitory effect in other S. salivarius strains, exception ATCC 7073 ([1]; 2.5% w/w raffinose, compared with K12 and M18)	antimicrobial activity of S. salivarius strain ATCC 7073 ([1]; supplemented with 2.5% w/w raffinose)
O=C[C@H](O)[C@@H](O)[C@@H](O)[C@H](O)CO [Galactose, D-galactose]	~12000 fold	224 fold	does not induce the same inhibitory effect	reduction in inhibitory activity				
OC[C@H]1O[C@H](OC[C@H]2O[C@H](O[C@]3(CO)O[C@H](CO)[C@@H](O)[C@@H]3O)[C@H](O)[C@@H](O)[C@@H]2O)[C@H](O)[C@@H](O)[C@H]1O [Raffinose, D-(+) Raffinose pentahydrate]				reduction in inhibitory activity	~5000 fold	234 fold	does not induce same inhibitory effect	antimicrobial activity
